Series [1] deals with bronchospasms induced by acetylcholine. Put plainly: Bronchospasmolytic activity (method of Konzett et al.), acetylcholine-induced bronchospasm. Format: in vivo. Conditions: anesthetized guinea pigs; for ED50: Cavia porcellus, dose which produces a 50% reduction of the bronchospasm, acetylcholine 20 mgm/kg i.v. How it is done: The compounds were tested on adult guinea pigs of both sexes by the standard pharmacological test method of Konzett et al., Naunyn-Schmiedeberg's Arch. Exp. Path. Pharmakol. 195, 71-74 (1940). The test animals were anesthetized with 1.5 gm/kg urethane i.p. The bronchospasms were induced by injection of 20 mgm/kg of acetylcholine i.v. The test compound was administered intravenously or intraduodenally. From the average values of maximum decrease in bronchoconstriction obtained at various dosage levels, an ED50 i.e. the dose which produces a 50% reduction of the bronchospasm, with confidence limits according to Fieller, Quart. J. Pharm. Phamacol. 17, 117-123 (1944), was calculated by linear regression analysis according to Linder, Statistische Methoden, 4th Ed., 148-162, published by Birkhauser, Basel, Switzerland (1964).

A short description of series [2]: Acute toxicity, intravenous, LD50. Conditions: mouse, in vivo, i.v., mice, animals which died within 14 days. How it is done:
The intravenous toxicity was determined on laboratory mice of both sexes having an average body weight of 20 gm. From the number of animals which died within 14 days at various dosage levels, the median lethal dose (LD50) was calculated by the method of Litchfield and Wilcoxon, supra.

For series [3], the system named is asthma attack induced by acetylcholine aerosol. Put plainly: Antiasthmatic activity (method of Kallos et al.), acetylcholine aerosol. Format: in vivo, guinea pigs. As for the experimental part: The standard test method of Kallos et al., Acta med. scand. 91, 292 (1937) was used. The test compound was orally administered to adult guinea pigs which were then exposed to an acetylcholine aerosol steam produced with an aerosol nozzle at 1.5 atmospheres gauge from a 0.4% solution of acetylcholine in an aqueous 0.9% sodium chloride solution. A more than three-fold prolongation of the time until onset of the asthma attack in comparision to untreated controls was evaluated as absolute protection. From the number of animals which were protected at various dosages, an ED50, i.e. the dose which gives absolute protection in 50% of the animals, was calculated by the method of Litchfield and Wilcoxon, J. Pahrmacol. Exper. Ther. 96, 99 (1949).

Setting [4] is: iv, read-out: ED50 after i.v. administration.
Where [5] appears, read: i.d. (intraduodenal), read-out: ED50 after i.d. administration.

Molecules are shown by their SMILES. Like-named read-outs stand apart in the source and are kept apart here.

Results on 4 molecules are retold here after patent US4214001A, “1-(4-Acylamino-phenyl)-2-amino-ethanols and salts thereof” (Boehringer Ingelheim GmbH, priority 1977, dated 1980).

Broadly, the LD50 is the dose at which mortality reaches 50%. For `CCOC(=O)Nc1c(F)cc(C(O)CNC(C)(C)C)cc1Cl.Cl` (stereo not drawn) [A, 1-(4'-ethoxycarbonylamino-3'-chloro-5'-fluoro-phenyl)-2-tert.-butylamino-ethanol hydrochloride], the ED50 in series [1] (setting [4]) is 0.0307 mg/kg; in series [1] (setting [5]), 0.0323 mg/kg. Further, the “t/2 after i.v. administration” value in series [1] was found to be 60 min. Besides, in series [2], the LD50 at 336 h came to 70.2 mg/kg.

For the molecule `CCOC(=O)Nc1ccc(C(O)CNC(C)C)cc1C#N.Cl` (stereo not drawn) [D, 1-(4'-ethoxycarbonylamino-3'-cyano-phenyl)-2-isopropylamino-ethanol hydrochloride], in series [1] (setting [4]), the ED50 was 0.064 mg/kg. For the same molecule, the “t/2 after i.v. administration” value in series [1] is recorded as over 50 min. This molecule also registered an LD50 at 336 h in series [2] of 61.9 mg/kg.

As for `CCOC(=O)Nc1ccc(C(O)CNC(C)(C)C)cc1C#N.Cl` (stereo not drawn) [C, 1-(4'-ethoxycarbonylamino-3'-cyano-phenyl)-2-tert. butylamino-ethanol hydrochloride], the ED50 came to 0.0235 mg/kg in series [1] (setting [4]) and 0.0087 mg/kg in series [1] (setting [5]). Besides, the “t/2 after i.v. administration” value in series [1] is listed as over 50 min. Also, in series [2], the LD50 at 336 h came to 67.2 mg/kg.

Regarding `CCOC(=O)Nc1c(F)cc(C(O)CNC(C)(C)C)cc1C#N.Cl` (stereo not drawn) [B, 1-(4'-ethoxycarbonylamino-3'-cyano-5'-fluoro-phenyl)-2-tert.-butylamino-ethanol hydrochloride], the ED50 is 0.0056 mg/kg in series [1] (setting [4]); 0.007 mg/kg in series [1] (setting [5]); 0.0143 mg/kg in series [3] (Cavia porcellus, po, dose which gives absolute protection in 50% of the animals (more than three-fold prolongation of time until onset of asthma attack), acetylcholine aerosol 0.4%). In series [1], the “t/2 after i.v. administration” value was 70 min. In series [3] (p.o., guinea pigs), this molecule registered a t/2 of 150 min. Further, the “Max. effect after min.” value in series [3] (p.o., guinea pigs, time of maximum effect) was 15 to 30 min. The LD50 at 336 h in series [2] worked out at 97.5 mg/kg.
